What was measured:
Experiment in all cases: KINOMEscan competition binding
Settings in all cases: compound 10.0 µM
[1] = molecular target: AKT1 (human) (UniProt P31749)
[2] = molecular target: AKT2 (human) (UniProt P31751)
[3] = molecular target: BMPR1B (human) (UniProt O00238)
[4] = molecular target: CASK (human) (UniProt O14936)
[5] = molecular target: CDC42BPA (human) (UniProt Q5VT25)
[6] = molecular target: CDKL5 (human) (UniProt O76039)
[7] = molecular target: DYRK2 (human) (UniProt Q92630)
[8] = molecular target: EIF2AK1 (human) (UniProt Q9BQI3)
[9] = molecular target: EPHA6 (human) (UniProt Q9UF33)
[10] = molecular target: EPHA8 (human) (UniProt P29322)
[11] = molecular target: HIPK4 (human) (UniProt Q8NE63)
[12] = molecular target: INSR (human) (UniProt P06213)
[13] = molecular target: ITK (human) (UniProt Q08881)
[14] = molecular target: JAK1 JH1 catalytic (human) (UniProt P23458)
[15] = test system: KIT (human), P10721 [A829P]
[16] = test system: KIT (human), P10721 [V559D]
[17] = molecular target: LATS2 (human) (UniProt Q9NRM7)
[18] = molecular target: LIMK1 (human) (UniProt P53667)
[19] = molecular target: LRRK2 (human) (UniProt Q5S007)
[20] = molecular target: LYN (human) (UniProt P07948)
[21] = molecular target: MAP2K2 (human) (UniProt P36507)
[22] = molecular target: MAP2K5 (human) (UniProt Q13163)
[23] = molecular target: MAP2K6 (human) (UniProt P52564)
[24] = molecular target: MAP3K3 (human) (UniProt Q99759)
[25] = molecular target: MAP3K4 (human) (UniProt Q9Y6R4)
[26] = molecular target: MAP3K7 (human) (UniProt O43318)
[27] = molecular target: MAP4K2 (human) (UniProt Q12851)
[28] = molecular target: MAPK1 (human) (UniProt P28482)
[29] = molecular target: MARK3 (human) (UniProt P27448)
[30] = molecular target: MUSK (human) (UniProt O15146)
[31] = molecular target: MYLK (human) (UniProt Q15746)
[32] = molecular target: PAK2 (human) (UniProt Q13177)
[33] = molecular target: PIK3C2G (human) (UniProt O75747)
[34] = molecular target: PTK6 (human) (UniProt Q13882)
[35] = molecular target: TAOK2 (human) (UniProt Q9UL54)
[36] = molecular target: TEC (human) (UniProt P42680)
[37] = molecular target: TESK1 (human) (UniProt Q15569)
[38] = molecular target: TNNI3K (human) (UniProt Q59H18)
[39] = molecular target: TTK (human) (UniProt P33981)
[40] = molecular target: TYRO3 (human) (UniProt Q06418)
[41] = molecular target: ULK3 (human) (UniProt Q6PHR2)
[42] = molecular target: ZAP70 (human) (UniProt P43403)
ZAP70 (human), sequence (P43403 whole entry, looked up): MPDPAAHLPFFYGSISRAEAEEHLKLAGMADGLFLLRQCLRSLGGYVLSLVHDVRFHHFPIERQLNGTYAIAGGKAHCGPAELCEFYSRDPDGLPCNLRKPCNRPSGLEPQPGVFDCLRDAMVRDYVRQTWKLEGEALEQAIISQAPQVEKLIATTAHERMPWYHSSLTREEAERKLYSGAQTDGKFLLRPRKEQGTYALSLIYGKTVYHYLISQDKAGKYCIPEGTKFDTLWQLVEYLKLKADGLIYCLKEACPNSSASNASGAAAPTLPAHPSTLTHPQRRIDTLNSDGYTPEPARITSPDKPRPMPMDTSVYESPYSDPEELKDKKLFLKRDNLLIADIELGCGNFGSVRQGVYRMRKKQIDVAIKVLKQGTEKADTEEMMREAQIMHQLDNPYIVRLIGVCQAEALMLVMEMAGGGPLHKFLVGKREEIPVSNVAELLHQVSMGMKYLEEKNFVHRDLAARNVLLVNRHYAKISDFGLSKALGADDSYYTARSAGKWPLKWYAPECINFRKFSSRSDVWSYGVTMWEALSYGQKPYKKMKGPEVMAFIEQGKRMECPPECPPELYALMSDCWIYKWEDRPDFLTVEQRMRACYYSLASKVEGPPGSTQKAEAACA

INSR (human), sequence (P06213 whole entry, looked up): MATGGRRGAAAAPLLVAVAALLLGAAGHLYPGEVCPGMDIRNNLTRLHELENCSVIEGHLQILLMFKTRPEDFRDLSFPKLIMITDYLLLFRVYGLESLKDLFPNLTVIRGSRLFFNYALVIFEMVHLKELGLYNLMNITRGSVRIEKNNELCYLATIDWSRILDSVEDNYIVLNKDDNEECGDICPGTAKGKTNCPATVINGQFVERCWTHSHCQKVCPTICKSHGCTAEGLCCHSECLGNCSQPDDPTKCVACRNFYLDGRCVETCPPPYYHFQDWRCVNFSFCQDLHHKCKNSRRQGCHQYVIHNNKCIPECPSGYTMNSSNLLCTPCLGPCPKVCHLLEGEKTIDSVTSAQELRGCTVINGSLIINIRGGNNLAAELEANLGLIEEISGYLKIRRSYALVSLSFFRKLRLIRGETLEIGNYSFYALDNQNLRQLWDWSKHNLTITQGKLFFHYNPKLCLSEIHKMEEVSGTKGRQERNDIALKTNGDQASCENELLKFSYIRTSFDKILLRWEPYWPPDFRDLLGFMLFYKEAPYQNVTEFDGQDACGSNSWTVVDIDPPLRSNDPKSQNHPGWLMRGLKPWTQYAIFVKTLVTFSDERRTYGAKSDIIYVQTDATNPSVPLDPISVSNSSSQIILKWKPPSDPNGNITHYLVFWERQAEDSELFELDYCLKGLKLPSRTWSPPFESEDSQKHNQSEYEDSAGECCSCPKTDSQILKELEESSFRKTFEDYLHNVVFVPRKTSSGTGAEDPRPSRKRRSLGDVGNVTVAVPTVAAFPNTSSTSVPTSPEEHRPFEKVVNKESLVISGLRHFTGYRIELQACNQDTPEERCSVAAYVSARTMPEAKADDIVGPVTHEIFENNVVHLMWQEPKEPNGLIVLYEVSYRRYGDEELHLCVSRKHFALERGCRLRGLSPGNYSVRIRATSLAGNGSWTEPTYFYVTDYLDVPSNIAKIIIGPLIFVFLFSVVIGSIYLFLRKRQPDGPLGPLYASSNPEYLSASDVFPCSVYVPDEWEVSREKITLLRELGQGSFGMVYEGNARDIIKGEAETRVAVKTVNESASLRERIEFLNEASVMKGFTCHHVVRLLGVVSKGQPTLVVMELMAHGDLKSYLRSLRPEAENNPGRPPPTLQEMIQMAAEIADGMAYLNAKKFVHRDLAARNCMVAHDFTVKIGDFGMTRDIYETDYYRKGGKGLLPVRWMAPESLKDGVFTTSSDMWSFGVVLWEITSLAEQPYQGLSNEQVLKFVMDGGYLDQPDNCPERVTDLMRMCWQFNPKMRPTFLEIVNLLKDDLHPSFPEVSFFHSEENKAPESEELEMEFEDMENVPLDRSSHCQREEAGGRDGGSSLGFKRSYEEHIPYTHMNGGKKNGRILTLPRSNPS
MAP3K7 (human), sequence (O43318 whole entry, looked up): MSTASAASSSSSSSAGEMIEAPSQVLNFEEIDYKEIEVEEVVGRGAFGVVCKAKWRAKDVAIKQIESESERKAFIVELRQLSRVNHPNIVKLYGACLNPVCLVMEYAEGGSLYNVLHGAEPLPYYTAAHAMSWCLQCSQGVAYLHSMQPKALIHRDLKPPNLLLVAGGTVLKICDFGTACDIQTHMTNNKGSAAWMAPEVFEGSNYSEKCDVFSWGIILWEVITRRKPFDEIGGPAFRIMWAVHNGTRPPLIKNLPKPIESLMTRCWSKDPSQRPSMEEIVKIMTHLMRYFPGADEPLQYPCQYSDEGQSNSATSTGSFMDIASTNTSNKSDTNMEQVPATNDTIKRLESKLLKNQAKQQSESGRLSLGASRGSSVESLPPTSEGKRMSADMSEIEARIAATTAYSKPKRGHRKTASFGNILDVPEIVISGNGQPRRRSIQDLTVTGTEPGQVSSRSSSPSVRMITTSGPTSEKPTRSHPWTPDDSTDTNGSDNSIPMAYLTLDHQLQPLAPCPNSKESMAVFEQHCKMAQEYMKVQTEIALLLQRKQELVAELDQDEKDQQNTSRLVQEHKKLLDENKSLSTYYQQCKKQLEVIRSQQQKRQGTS
MAP2K6 (human), sequence (P52564 whole entry, looked up): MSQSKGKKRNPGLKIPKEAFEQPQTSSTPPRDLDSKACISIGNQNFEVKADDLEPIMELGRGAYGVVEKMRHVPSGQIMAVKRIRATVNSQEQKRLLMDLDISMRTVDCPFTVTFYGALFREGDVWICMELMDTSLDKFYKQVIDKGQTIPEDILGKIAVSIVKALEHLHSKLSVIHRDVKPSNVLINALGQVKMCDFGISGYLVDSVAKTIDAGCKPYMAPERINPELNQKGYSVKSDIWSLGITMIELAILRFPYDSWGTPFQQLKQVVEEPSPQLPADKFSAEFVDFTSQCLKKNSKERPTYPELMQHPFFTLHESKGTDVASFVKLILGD
TESK1 (human), sequence (Q15569 whole entry, looked up): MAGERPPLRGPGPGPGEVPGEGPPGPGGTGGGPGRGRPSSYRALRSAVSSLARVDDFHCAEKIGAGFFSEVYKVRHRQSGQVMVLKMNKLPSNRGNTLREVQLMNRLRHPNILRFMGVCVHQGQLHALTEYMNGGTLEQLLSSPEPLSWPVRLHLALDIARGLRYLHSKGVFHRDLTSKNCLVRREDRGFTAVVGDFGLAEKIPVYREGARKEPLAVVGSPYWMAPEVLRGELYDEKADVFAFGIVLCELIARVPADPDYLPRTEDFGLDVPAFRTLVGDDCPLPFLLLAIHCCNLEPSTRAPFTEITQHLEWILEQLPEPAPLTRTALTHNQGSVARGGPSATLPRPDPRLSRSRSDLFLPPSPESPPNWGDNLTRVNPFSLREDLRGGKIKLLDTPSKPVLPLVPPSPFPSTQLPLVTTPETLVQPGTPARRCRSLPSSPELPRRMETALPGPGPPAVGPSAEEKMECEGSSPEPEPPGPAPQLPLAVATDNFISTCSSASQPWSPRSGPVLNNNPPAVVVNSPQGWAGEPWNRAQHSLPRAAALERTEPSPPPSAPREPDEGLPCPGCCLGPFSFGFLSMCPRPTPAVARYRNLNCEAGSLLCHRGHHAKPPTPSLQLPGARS
EPHA6 (human), sequence (Q9UF33 whole entry, looked up): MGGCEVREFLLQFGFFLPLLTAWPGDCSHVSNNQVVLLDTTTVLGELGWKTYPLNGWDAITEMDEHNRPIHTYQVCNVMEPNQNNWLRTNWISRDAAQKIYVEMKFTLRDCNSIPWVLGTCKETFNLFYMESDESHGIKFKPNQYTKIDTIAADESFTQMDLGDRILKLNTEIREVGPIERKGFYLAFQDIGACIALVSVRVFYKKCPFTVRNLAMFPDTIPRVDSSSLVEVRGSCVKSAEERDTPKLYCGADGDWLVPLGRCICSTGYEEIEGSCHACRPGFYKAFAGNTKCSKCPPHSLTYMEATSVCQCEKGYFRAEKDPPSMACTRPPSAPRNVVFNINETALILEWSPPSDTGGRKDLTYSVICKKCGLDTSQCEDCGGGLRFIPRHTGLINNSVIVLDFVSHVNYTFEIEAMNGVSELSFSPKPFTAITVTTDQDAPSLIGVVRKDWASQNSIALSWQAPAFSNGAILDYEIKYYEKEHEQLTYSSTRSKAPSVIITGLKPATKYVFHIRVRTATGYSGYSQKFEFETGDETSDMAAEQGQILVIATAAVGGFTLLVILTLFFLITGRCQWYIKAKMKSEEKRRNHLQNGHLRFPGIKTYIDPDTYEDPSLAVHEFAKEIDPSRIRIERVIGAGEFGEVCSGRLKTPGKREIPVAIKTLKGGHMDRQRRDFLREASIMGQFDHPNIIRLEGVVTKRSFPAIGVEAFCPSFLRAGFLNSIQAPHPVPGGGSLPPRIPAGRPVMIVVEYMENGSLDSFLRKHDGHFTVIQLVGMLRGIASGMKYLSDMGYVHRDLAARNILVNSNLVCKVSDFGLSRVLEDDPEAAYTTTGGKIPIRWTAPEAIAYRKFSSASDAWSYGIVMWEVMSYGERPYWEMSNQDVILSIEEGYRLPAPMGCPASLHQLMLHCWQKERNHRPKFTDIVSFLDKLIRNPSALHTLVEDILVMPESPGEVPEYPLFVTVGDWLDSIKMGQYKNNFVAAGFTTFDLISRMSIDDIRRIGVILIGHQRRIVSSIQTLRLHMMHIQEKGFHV
MAPK1 (human), sequence (P28482 whole entry, looked up): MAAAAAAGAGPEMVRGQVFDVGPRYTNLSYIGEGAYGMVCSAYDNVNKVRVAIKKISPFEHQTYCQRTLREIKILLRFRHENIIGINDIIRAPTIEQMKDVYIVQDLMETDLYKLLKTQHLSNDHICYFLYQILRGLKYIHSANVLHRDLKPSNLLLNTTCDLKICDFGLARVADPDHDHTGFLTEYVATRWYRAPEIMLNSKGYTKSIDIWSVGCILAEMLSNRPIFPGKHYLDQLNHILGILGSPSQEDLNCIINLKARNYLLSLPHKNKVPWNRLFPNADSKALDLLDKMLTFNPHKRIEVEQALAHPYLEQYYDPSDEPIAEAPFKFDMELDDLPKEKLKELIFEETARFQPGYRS

Cc1cc([C@@H](C)Nc2ccccc2C(=O)O)c2nc(N3CCOCC3)cc(=O)n2c1
kinase still bound, per cent of control [1]: 100% | kinase still bound, per cent of control [2]: 100% | kinase still bound, per cent of control [3]: 89% | kinase still bound, per cent of control [4]: 100% | kinase still bound, per cent of control [5]: 100% | kinase still bound, per cent of control [6]: 82% | kinase still bound, per cent of control [7]: 72% | kinase still bound, per cent of control [8]: 100% | kinase still bound, per cent of control [9]: 100% | kinase still bound, per cent of control [10]: 82% | kinase still bound, per cent of control [11]: 56% | kinase still bound, per cent of control [12]: 79% | kinase still bound, per cent of control [13]: 100% | kinase still bound, per cent of control [14]: 70% | kinase still bound, per cent of control [15]: 87% | kinase still bound, per cent of control [16]: 93% | kinase still bound, per cent of control [17]: 97% | kinase still bound, per cent of control [18]: 100% | kinase still bound, per cent of control [19]: 97% | kinase still bound, per cent of control [20]: 89% | kinase still bound, per cent of control [21]: 98% | kinase still bound, per cent of control [22]: 100% | kinase still bound, per cent of control [23]: 91% | kinase still bound, per cent of control [24]: 77% | kinase still bound, per cent of control [25]: 100% | kinase still bound, per cent of control [26]: 100% | kinase still bound, per cent of control [27]: 97% | kinase still bound, per cent of control [28]: 100% | kinase still bound, per cent of control [29]: 95% | kinase still bound, per cent of control [30]: 100% | kinase still bound, per cent of control [31]: 43% | kinase still bound, per cent of control [32]: 100% | kinase still bound, per cent of control [33]: 16% | kinase still bound, per cent of control [34]: 15% | kinase still bound, per cent of control [35]: 89% | kinase still bound, per cent of control [36]: 91% | kinase still bound, per cent of control [37]: 100% | kinase still bound, per cent of control [38]: 15% | kinase still bound, per cent of control [39]: 88% | kinase still bound, per cent of control [40]: 100% | kinase still bound, per cent of control [41]: 100% | kinase still bound, per cent of control [42]: 72%

— the kinase profiling compilation of Christmann-Franck et al. (2016)
